Results taken from the supplement of paper PMC4932681.

What was measured:
Experiment in all cases: viability inhibition at highest dose (% inhibition); higher = more growth inhibition
[1] = system: BT-474 Tam1; settings: 4-OH-tamoxifen in medium 1 µM; 72 h
Description: (§1)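 Percent inhibition of viability (CellTiter-Glo, 72 h) at the highest tested concentration (D5), normalised to DMSO (0%) and 100 µM benzethonium chloride (100%). Resistant lines and the 'in 1µM tamoxifen' arms were tested in 1 µM 4-OH-tamoxifen.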

[2] = system: BT-474 Tam2; settings: 4-OH-tamoxifen in medium 1 µM; 72 h
Description: as §1

[3] = system: BT-474; settings: 72 h
Description: as §1

[4] = system: MCF-7 Tam1; settings: 4-OH-tamoxifen in medium 1 µM; 72 h
Description: as §1

[5] = system: MCF-7; settings: 72 h
Description: as §1

[6] = system: T-47D Tam1; settings: 4-OH-tamoxifen in medium 1 µM; 72 h
Description: as §1

[7] = system: T-47D Tam2; settings: 4-OH-tamoxifen in medium 1 µM; 72 h
Description: as §1

[8] = system: T-47D; settings: 72 h
Description: as §1

[9] = system: ZR-75-1 Tam1; settings: 4-OH-tamoxifen in medium 1 µM; 72 h
Description: as §1

[10] = system: ZR-75-1 Tam2; settings: 4-OH-tamoxifen in medium 1 µM; 72 h
Description: as §1

[11] = system: ZR-75-1; settings: 72 h
Description: as §1

SMILES	viability inhibition at highest dose [1]	viability inhibition at highest dose [2]	viability inhibition at highest dose ([3]; 4-OH-tamoxifen in medium 0 µM)	viability inhibition at highest dose ([3]; 4-OH-tamoxifen in medium 1 µM)	viability inhibition at highest dose [4]	viability inhibition at highest dose ([5]; 4-OH-tamoxifen in medium 0 µM)	viability inhibition at highest dose ([5]; 4-OH-tamoxifen in medium 1 µM)	viability inhibition at highest dose [6]	viability inhibition at highest dose [7]	viability inhibition at highest dose ([8]; 4-OH-tamoxifen in medium 0 µM)	viability inhibition at highest dose ([8]; 4-OH-tamoxifen in medium 1 µM)	viability inhibition at highest dose [9]	viability inhibition at highest dose [10]	viability inhibition at highest dose ([11]; 4-OH-tamoxifen in medium 0 µM)	viability inhibition at highest dose ([11]; 4-OH-tamoxifen in medium 1 µM)
CNC(=O)c1cc(Oc2ccc(NC(=O)Nc3ccc(Cl)c(C(F)(F)F)c3)cc2)ccn1 [Sorafenib] (drug 1000 nM)	12.1	-4.18	-8.19	-5.87	-2.56	4.04	5.41	-11.3	4.98	-13.3	-7.58	-2.44	-2.71	-7.83	4.52
Cc1ccc(NC(=O)c2ccc(CN3CCN(C)CC3)cc2)cc1Nc1nc(-c2cccnc2)cs1 [Masitinib] (drug 10000 nM)	93.1	87	21.2	71.6	26.5	39.5	40.7	34.5	40.7	42	57.1	18.2	32.8	9.35	20.3
COCC[n+]1c2c(n(Cc3cnccn3)c1C)C(=O)c1ccccc1C2=O [YM155] (drug 10000 nM)	99.4	98.6	99	100	98.9	99.8	99.1	96.1	94.1	98.1	98.6	99.6	95.8	96	98
C/C(=C\c1csc(C)n1)[C@@H]1C[C@@H]2O[C@]2(C)CCC[C@H](C)[C@H](O)[C@@H](C)C(=O)C(C)(C)[C@@H](O)CC(=O)N1 [Ixabepilone] (drug 1000 nM)	4.12	-14.8	-8.54	41	-16.3	33.8	26.2	30	33.3	45.1	23	-3.74	-5.09	-11.9	-5.49
O=P1(NCCCl)OCCCN1CCCl (stereo not given) [Ifosfamide] (drug 10000 nM)	2.59	-0.857	-8.04	1.1	-4.9	-17.9	17.3	-0.131	1.35	-16.4	-8.32	2.45	-4.83	-8.49	-7.06
Cc1c(CN2CCN(C(=O)[C@H](C)O)CC2)sc2c(N3CCOCC3)nc(-c3cnc(N)nc3)nc12 [GDC-0980] (drug 10000 nM)	87.4	84.3	60.1	86.3	52.1	74	73.4	67.1	64	73.8	72.1	66.6	72.1	64.4	56.3
CC1(C)NC(=O)N(c2ccc([N+](=O)[O-])c(C(F)(F)F)c2)C1=O [Nilutamide] (drug 10000 nM)	-0.747	10.7	-2.3	-13.3	-1.08	-15.4	15.9	0.496	6	-3.55	-11.8	2.7	4.62	-16.5	-4.81
CCOc1cc2ncc(C#N)c(Nc3ccc(OCc4ccccn4)c(Cl)c3)c2cc1NC(=O)/C=C/CN(C)C [Neratinib] (drug 1000 nM)	97.4	97.1	83.2	95	8.88	-5.52	24.9	32.5	32.5	19	1.93	2.29	9.49	-13	9.01
Nc1cccc2c1CN(C1CCC(=O)NC1=O)C2=O (stereo not given) [Lenalidomide] (drug 10000 nM)	5.58	2.75	-5.28	-16.5	-1.73	-4.99	29.1	-2.5	-4.53	-20.4	-6.19	2.97	-0.811	-8.43	-6.55
Cc1cc(Nc2nc(N[C@@H](C)c3ncc(F)cn3)ncc2Cl)[nH]n1 [AZD1480] (drug 1000 nM)	3.08	-2.54	-2.51	8	1.6	13.1	6.46	2.99	3.94	-12.1	-7.24	-2.1	-3.72	-6.08	-11.4
CCc1cncnc1N1CCN(Cc2nc3ccc(C(F)(F)F)cc3[nH]2)CC1 (drug 10000 nM)	68.5	41.4	36	53.7	20.7	37.2	33.2	33.4	31	33	15.3	17.9	25.5	18.5	28.3
C=C(c1ccc(C(=O)O)cc1)c1cc2c(cc1C)C(C)(C)CCC2(C)C [Bexarotene] (drug 10000 nM)	-1.85	0.869	1.74	20.9	19.2	-1.91	5.85	25.9	9.65	13.7	14.2	-2.13	9.24	15.4	8.83
CC(=O)[C@]1(O)Cc2c(O)c3c(c(O)c2[C@@H](O[C@H]2C[C@H](N)[C@H](O)[C@H](C)O2)C1)C(=O)c1ccccc1C3=O [Idarubicin] (drug 1000 nM)	87.9	65	77.2	96.2	39.5	80.6	66.6	83.7	45.9	68.9	59.5	55.2	62.4	61.7	52.2
C[C@@H]1CCN(C(=O)CC#N)C[C@@H]1N(C)c1ncnc2[nH]ccc12 [Tofacitinib (Tasocitinib)] (drug 5000 nM)	-11.1	-10.5	0.0745	-12.8	1.13	-15.3	12.9	-1.37	-13.3	3.16	-4.5	4.16	10.5	-2.74	-1.91
